Experimental data: patent publication US20150218534A1, “MODIFIED DNA POLYMERASE” (TOYOBO CO., LTD., priority 2012, published 2015)

B1: KOD P36K: modified KOD DNA polymerase with P36K (protein, listed as Thermococcus kodakaraensis)
chain: MILDTDYITEDGKPVIRIFKKENGEFKIEYDRTFEKYFYALLKDDSAIEEVKKITAERHGTVVTVKRVEKVQKKFLGRPVEVWKLYFTHPQDVPAIRDKIREHPAVIDIYEYDIPFAKRYLIDKGLVPMEGDEELKMLAFDIETLYHEGEEFAEGPILMISYADEEGARVITWKNVDLPYVDVVSTEREMIKRFLRVVKEKDPDVLITYNGDNFDFAYLKKRCEKLGINFALGRDGSEPKIQRMGDRFAVEVKGRIHFDLYPVIRRTINLPTYTLEAVYEAVFGQPKEKVYAEEITTAWETGENLERVARYSMEDAKVTYELGKEFLPMEAQLSRLIGQSLWDVSRSSTGNLVEWFLLRKAYERNELAPNKPDEKELARRRQSYEGGYVKEPERGLWENIVYLDFRSLYPSIIITHNVSPDTLNREGCKEYDVAPQVGHRFCKDFPGFIPSLLGDLLEERQKIKKKMKATIDPIERKLLDYRQRAIKILANSYYGYYGYARARWYCKECAESVTAWGREYITMTIKEIEEKYGFKVIYSDTDGFFATIPGADAETVKKKAMEFLKYINAKLPGALELEYEGFYKRGFFVTKKKYAVIDEEGKITTRGLEIVRRDWSEIAKETQARVLEALLKDGDVEKAVRIVKEVTEKLSKYEVPPEKLVIHEQITRDLKDYKATGPHVAVAKRLAARGVKIRPGTVISYIVLKGSGRIGDRAIPFDEFDPTKHKYDAEYYIENQVLPAVERILRAFGYRKEDLRYQKTRQVGLSAWLKPKGT

Experiments:
Type in all cases: biochemical
482 bp of human β-globin = test: PCR amplification of 482 bp of human β-globin with dUTP in place of dTTP; parameters: key to Results of PCR in the presence of dUTP 481 bp: A: Amplified; B: Amplified (faint band); C: Not amplified; details: for Results of PCR in the presence of dUTP 481 bp: dTTP replaced by dUTP, 35 cycles
Method: 482 bp of human β-globin was amplified to compare the amplification difference between the case of using dTTP and the case of using dUTP in PCR, and the sensitivity to dUTP was examined. For amplification, each enzyme was used after being mixed with 1 μg of a KOD antibody per U of the enzyme. For PCR, components included in KOD-Plus-Ver. 2 (produced by Toyobo Co. Ltd.) were used. General dNTPs (dATP, dTTP, dCTP, dGTP) in an amount of 0.2 mM were added to 50 μl of individual reaction solutions, and dNTPs (dATP, dUTP, dCTP, dGTP) in an amount of 0.2 mM in which dTTP was replaced by dUTP were added to 50 μl of individual reaction solutions. The reaction solutions contained 1× PCR buffer, 1.5 mM MgSO4, primers represented by SEQ ID NOs: 27 and 28 in an amount of 15 pmol for amplifying […], 10 ng of human genomic DNA (produced by Roche), and 1 U of each respective enzyme mixed with the antibody. PCR was performed using a GeneAmp PCR system 9700 (produced by Applied Biosystems) on the following schedule: preliminary reaction at 94° C. for 2 minutes, followed by 35 cycles, each cycle consisting of 98° C. for 10 seconds and 68° C. for 1 minute. After the completion of each individual reaction, each of the resulting reaction solutions was analyzed using to a DNA-1000 kit for MultiNA (produced by Shimadzu Corporation) to confirm amplified DNA fragments. FIGS. 5 and 6 show the results.

[1] = test system: human genomic DNA (about 1.3 kb) with dUTP added; test: Evaluation of uracil (dUTP) sensitivity by PCR with dUTP added to the reaction; details: for Evaluation of dUTP resisitance on a 11-point scale: closer to 0 = stronger sensitivity to dUTP, closer to 10 = lower sensitivity, summary of Examples 1 to 3; for dUTP resistance: dUTP added to 0.5, 5, 50, 100, 200 μM, about 1.3 kb, 30 cycles, 1 U enzyme
Method: The uracil sensitivity of the modified DNA polymerase of the present invention can be evaluated by PCR. For example, a dUTP solution is added at a final concentration of 0.5 μM to 200 μM to a common PCR reaction solution containing DNA as a template, a buffer, magnesium, dNTPs, primers, and a DNA polymerase to be evaluated, and thermal cycling is performed. After the reaction, the presence or absence of PCR products is confirmed by ethidium bromide-stained agarose electrophoresis, and the uracil sensitivity can be evaluated by the concentration of accepted dUTP. With a DNA polymerase having high uracil sensitivity, the extension reaction is inhibited by the addition of a small amount of dUTP, and PCR products cannot be confirmed. With a DNA polymerase having low uracil sensitivity, gene amplification by PCR can be confirmed without problem, even if a high concentration of dUTP is added. The modified DNA polymerase with low uracil sensitivity in the present invention refers to a DNA polymerase such that when optimum thermal cycling is performed using any primers and DNA as a template in a reaction buffer optimum for the enzyme, even if a high concentration of dUTP is added, an extension reaction is not inhibited and PCR products can be confirmed, compared to wild-type DNA polymerase, which has no mutation.
More specifically, 10× PCR buffer included in KOD-Plus-Ver. 2 (produced by Toyobo Co. Ltd.) or 10× PCR buffer included in Pfu DNA Polymerase (produced by Agilent) is used; dUTP (produced by Roche) is added to 50 μl of individual reaction solutions containing 1× PCR buffer, 1.5 mM MgSO4, dNTPs (dATP, dTTP, dCTP, and dGTP) in an amount of 0.2 mM, primers represented by SEQ ID NOs: 25 and 26 in an amount of 15 pmol for amplifying about 1.3 kb, 10 ng of human genomic DNA (produced by Roche), and 1 U of each respective enzyme, to final concentrations of 0.5, 5, 50, 100, and 200 μM. PCR is performed using a GeneAmp PCR system 9700 (Applied Biosystems) on the following schedule; preliminary reaction at 94° C. for 30 seconds, followed by 30 cycles, each cycle consisting of 98° C. for 10 seconds, 65° C. for 30 seconds, and 68° C. for 1 minute and 30 seconds. After the completion of each individual reaction, 5 μl of each of the resulting reaction solutions is subjected to agarose electrophoresis, followed by ethidium bromide staining. The uracil sensitivity can be evaluated by confirming amplified DNA fragments of about 1.3 kb under ultraviolet irradiation.
PCR was performed by the following method to evaluate uracil sensitivity. For PCR, components included in KOD-Plus-Ver. 2 (produced by Toyobo Co. Ltd.) were used. dUTP (produced by Roche) was added to 50 μl of individual reaction solutions containing 1× PCR buffer, 1.5 mM MgSO4, dNTPs (dATP, dTTP, dCTP, dGTP) in an amount of 0.2 mM, primers represented by SEQ ID NOs: 25 and 26 in an amount of 15 pmol for amplifying about 1.3 kb, 10 ng of human genomic DNA (produced by Roche), and 1 U of each respective enzyme, to final concentrations of 0.5, 5, 50, 100, and 200 μM. PCR was performed using a GeneAmp PCR system 9700 (produced by Applied Biosystems) on the following schedule: preliminary reaction at 94° C. for 30 seconds, followed by 30 cycles, each cycle consisting of 98° C. for 10 seconds, 65° C. for 30 seconds, and 68° C. for 1 minute and 30 seconds. After the completion of each individual reaction, 5 μl of each of the resulting reaction solutions was subjected to agarose electrophoresis, followed by ethidium bromide staining. Under ultraviolet irradiation, amplified DNA fragments of about 1.3 kb were confirmed. FIGS. 3, 4, 7, and 8 show the results.

[2] = test system: 1.3 kbp, 2.8 kbp, and 3.6 kbp of human β-globin; test: Amplification of long-chain DNA in PCR using dUTP; parameters: key to Results of PCR in the presence of dUTP 1.3 kbp / Results of PCR in the presence of dUTP 2.8 kbp / Results of PCR in the presence of dUTP 3.6 kbp: A: Amplified; B: Amplified (faint band); C: Not amplified; details: dTTP replaced by dUTP, 35 cycles
Method: Amplification of 1.3 kbp, 2.8 kbp, and 3.6 kbp of human β-globin in PCR using dUTP was compared. For amplification, each enzyme was used after being mixed with 1 μg of a KOD antibody per U of the enzyme. For PCR, components included in KOD-Plus-Ver. 2 (produced by Toyobo Co. Ltd.) were used. 50 μl of individual reaction solutions containing 1× PCR buffer, 1.5 mM MgSO4, dNTPs (dATP, dUTP, dCTP, dGTP) in an amount of 2 mM in which dTTP was replaced by dUTP, primers in an amount of 15 pmol (SEQ ID NOs: 25 and 26 for amplification of 1.3 kbp; SEQ ID NOs: 26 and 29 for amplification of 2.8 kbp; SEQ ID NOs: 30 and 31 for amplification of 3.6 kbp), 10 ng of human genomic DNA (produced by Roche), and 1 U of each respective enzyme mixed with the antibody were used. PCR was performed using a GeneAmp PCR system 9700 (Applied Biosystems) on the following schedule: preliminary reaction at 94° C. for 2 minutes, followed by 35 cycles, each cycle consisting of 98° C. for 10 seconds, 65° C. for 30 seconds, and 68° C. for about 1 minute per kbp (1 minute and 30 seconds for amplification of 1.3 kbp; 3 minutes for amplification of 2.8 kbp; 4 minutes for amplification of 3.6 kbp). As a control, amplification was also performed using Taq DNA polymerase. Taq DNA polymerase produced by Toyobo Co. Ltd. mixed with Anti-Taq High (produced by Toyobo Co. Ltd.) was used. 50 μl of a reaction solution containing 1× buffer included in Blend Taq, dNTPs (dATP, dUTP, dCTP, dGTP) in an amount of 2 mM in which dTTP was replaced by dUTP, primers in an amount of 10 pmol the same as the above), 10 ng of human genomic DNA (produced by Roche), and 2.5 U of the enzyme mixed with the antibody was used. PCR was performed using a GeneAmp PCR system 9700 (produced by Applied Biosystems) on the following schedule: preliminary reaction at 94° C. for 2 minutes, followed by 35 cycles, each cycle consisting of 94° C. for 30 seconds, 65° C. for 30 seconds, and 68° C. for about 1 minute per kbp (1 minute and 30 seconds for amplification of 1.3 kbp; 3 minutes for amplification of 2.8 kbp; 4 minutes for amplification of 3.6 kbp). After the completion of each individual reaction, 5 μl of each of the resulting reaction solutions was subjected to agarose electrophoresis, followed by ethidium bromide staining, and the amount of amplified DNA fragments was confirmed under ultraviolet irradiation. FIGS. 9 and 10 show the results.

| Molecule | Results of PCR in the presence of dUTP 481 bp (482 bp of human β-globin) | Evaluation of dUTP resisitance on a 11-point scale [1] | Results of PCR in the presence of dUTP 1.3 kbp [2] | Results of PCR in the presence of dUTP 2.8 kbp [2] | Results of PCR in the presence of dUTP 3.6 kbp [2] | PCR amplification of 482 bp with dUTP (482 bp of human β-globin; 100% dUTP instead of dTTP (FIGS. 5 to 8)) | sensitivity to dUTP / amount of amplification, comparison with single mutants or wild type ([1]; dUTP added to PCR (FIGS. 3 and 4)) | dUTP resistance [1] [µM] | PCR products on addition of dUTP ([1]; some amount of dUTP added) |
| --- | --- | --- | --- | --- | --- | --- | --- | --- | --- |
| KOD H147E/Y7A/P36H/V93K: KOD H147E (exo(+)) mutant with Y7A, P36H and V93K | C | 0 | C | C | C |  |  |  |  |
| KOD Y7A/P36K: modified KOD DNA polymerase with Y7A and P36K |  |  |  |  |  | allowed for PCR amplification | more tolerant of the addition of high concentration of dUTP and provided a larger amount of amplification |  |  |
| KOD Y7A/P36R/V93K: modified KOD DNA polymerase with Y7A, P36R and V93K | C | 0 | C | C | C |  |  |  |  |
| KOD Y7A/P36H/V93K: modified KOD DNA polymerase with Y7A, P36H and V93K | C | 0 | C | C | C |  |  |  |  |
| KOD H147E/P36K: KOD H147E (exo(+)) mutant with P36K | A | 4 |  |  |  |  |  | 100 |  |
| KOD H147E/Y7A/P36R/V93K: KOD H147E (exo(+)) mutant with Y7A, P36R and V93K | C | 0 | C | C | C |  |  |  |  |
| B1 | A | 3 |  |  |  |  |  | 100 | PCR products were confirmed |
